Measured values as given in ChEMBL document CHEMBL5032504, “Discovery and Optimization of a Novel 2H-Pyrazolo[3,4-d]pyrimidine Derivative as a Potent Irreversible Pan-Fibroblast Growth Factor Receptor Inhibitor” (J Med Chem, 2021).

Experiments:
[1] = target: Serine/threonine-protein kinase TAO1 (Homo sapiens) (UniProt Q7L7X3); details: dose 1000.0 nM
Description: Inhibition of TAOK1 (unknown origin) at 1000 nM relative to control

[2] = target: Aurora kinase A (Homo sapiens) (UniProt O14965); details: dose 1000.0 nM
Description: Inhibition of AURORA kinase A (unknown origin) at 1000 nM relative to control

[3] = target: Serine/threonine-protein kinase pim-1 (Homo sapiens) (UniProt P11309); details: dose 1000.0 nM
Description: Inhibition of PIM1 (unknown origin) at 1000 nM relative to control

[4] = target: ALK tyrosine kinase receptor (Homo sapiens) (UniProt Q9UM73); details: dose 1000.0 nM
Description: Inhibition of ALK (unknown origin) at 1000 nM relative to control

[5] = target: Focal adhesion kinase 1 (Homo sapiens) (UniProt Q05397); details: dose 1000.0 nM
Description: Inhibition of FAK (unknown origin) at 1000 nM relative to control

[6] = target: Cyclin-dependent kinase 4 (Homo sapiens) (UniProt P11802); details: dose 1000.0 nM
Description: Inhibition of CDK4 (unknown origin) at 1000 nM relative to control

[7] = test system: NCI-H460; test: cells; type: functional, cell-based; details: Homo sapiens, NCI-H460, 96 h
[8] = in vivo; details: Sprague-Dawley, rat, iv, 5 mg/kg
[9] = target: TGF-beta receptor type-1 (Homo sapiens) (UniProt P36897); details: dose 1000.0 nM
Description: Inhibition of TGFBR1 (unknown origin) at 1000 nM relative to control

[10] = target: Casein kinase II subunit alpha (Homo sapiens) (UniProt P68400); details: dose 1000.0 nM
Description: Inhibition of CK2alpha1 (unknown origin) at 1000 nM relative to control

[11] = test system: NCI-H1581; test: animal or person; type: functional; details: Mus musculus, NCI-H1581, po, 624 h, time 26 day, read-out: TGI
Description: Antitumor activity against human NCI-H1581 cells xenografted in BALB/c mouse assessed as tumor growth inhibition at 50 mg/kg, po administered once daily for 26 days relative to control

[12] = test system: SNU-16; test: animal or person; type: functional; details: Mus musculus, SNU-16, po, 960 h, time 40 day, read-out: TGI
Description: Antitumor activity against human SNU-16 cells xenografted in BALB/c mouse assessed as tumor growth inhibition at 100 mg/kg, po administered once daily for 40 days relative to control

[13] = target: Tyrosine-protein kinase ITK/TSK (Homo sapiens) (UniProt Q08881); details: dose 1000.0 nM
Description: Inhibition of ITK (unknown origin) at 1000 nM relative to control

[14] = target: Discoidin domain-containing receptor 2 (Homo sapiens) (UniProt Q16832); details: dose 1000.0 nM
Description: Inhibition of DDR2 (unknown origin) at 1000 nM relative to control

[15] = target: Serine/threonine-protein kinase Nek3 (Homo sapiens) (UniProt P51956); details: dose 1000.0 nM
Description: Inhibition of NEK3 (unknown origin) at 1000 nM relative to control

[16] = target: Platelet-derived growth factor receptor alpha (Homo sapiens) (UniProt P16234); details: dose 1000.0 nM
Description: Inhibition of PDGFRA (unknown origin) at 1000 nM relative to control

[17] = target: Voltage-gated inwardly rectifying potassium channel KCNH2 (Homo sapiens, UniProt Q12809)
Description: Binding affinity to human ERG

[18] = target: Macrophage-stimulating protein receptor (Homo sapiens) (UniProt Q04912); details: dose 1000.0 nM
Description: Inhibition of RON (unknown origin) at 1000 nM relative to control

[19] = test system: NCI-H1581; test: cells; type: functional, cell-based; details: Homo sapiens, NCI-H1581, 96 h
[20] = target: RAC-gamma serine/threonine-protein kinase (Homo sapiens) (UniProt Q9Y243); details: dose 1000.0 nM
Description: Inhibition of AKT3 (unknown origin) at 1000 nM relative to control

[21] = target: Tyrosine-protein kinase CSK (Homo sapiens) (UniProt P41240); details: dose 1000.0 nM
Description: Inhibition of CSK (unknown origin) at 1000 nM relative to control

[22] = in vivo; details: Sprague-Dawley, rat, iv, 5 mg/kg; remark: listed apart in the source
Description: MRT in Sprague-Dawley rat at 5 mg/kg, iv administered as single dose measured up to 8 hrs by LC/MS-MS analysis

[23] = in vivo; details: Sprague-Dawley, rat, iv, 5 mg/kg; remark: listed apart in the source
[24] = in vivo; details: Sprague-Dawley, rat, iv, 5 mg/kg; remark: listed apart in the source
Description: Initial plasma concentration in Sprague-Dawley rat at 5 mg/kg, iv administered as single dose measured up to 8 hrs by LC/MS-MS analysis

[25] = target: Mitogen-activated protein kinase 1 (Homo sapiens) (UniProt P28482); details: dose 1000.0 nM
Description: Inhibition of MAPK1 (unknown origin) at 1000 nM relative to control

[26] = target: Calcium/calmodulin-dependent protein kinase type II subunit alpha (Homo sapiens) (UniProt Q9UQM7); details: dose 1000.0 nM
Description: Inhibition of CAMK2 alpha (unknown origin) at 1000 nM relative to control

[27] = in vivo; details: Sprague-Dawley, rat, po, 5 mg/kg
Description: Clearance in Sprague-Dawley rat at 5 mg/kg, po administered as single dose measured up to 8 hrs by LC/MS-MS analysis

[28] = target: Interferon-induced, double-stranded RNA-activated protein kinase (Homo sapiens) (UniProt P19525); details: dose 1000.0 nM
Description: Inhibition of EIF2AK2 (unknown origin) at 1000 nM relative to control

[29] = target: Tyrosine-protein kinase ABL1 (Homo sapiens) (UniProt P00519); details: dose 1000.0 nM
Description: Inhibition of ABL1 (unknown origin) at 1000 nM relative to control

[30] = test system: NCI-H1581; test: animal or person; type: functional; details: Mus musculus, NCI-H1581, po, 624 h, time 26 day, read-out: TGI; remark: listed apart in the source
Description: Antitumor activity against human NCI-H1581 cells xenografted in BALB/c mouse assessed as tumor growth inhibition at 100 mg/kg, po administered once daily for 26 days relative to control

[31] = target: Receptor tyrosine-protein kinase erbB-2 (Homo sapiens) (UniProt P04626); details: dose 1000.0 nM
Description: Inhibition of HER2 (unknown origin) at 1000 nM relative to control

[32] = target: Interleukin-1 receptor-associated kinase 4 (Homo sapiens) (UniProt Q9NWZ3); details: dose 1000.0 nM
Description: Inhibition of IRAK4 (unknown origin) at 1000 nM relative to control

[33] = target: Serine/threonine-protein kinase B-raf (Homo sapiens) (UniProt P15056); details: dose 1000.0 nM
Description: Inhibition of BRAF (unknown origin) at 1000 nM relative to control

[34] = in vivo; details: Sprague-Dawley, rat, po, 5 mg/kg; remark: listed apart in the source
[35] = target: Maternal embryonic leucine zipper kinase (Homo sapiens) (UniProt Q14680); details: dose 1000.0 nM
Description: Inhibition of MELK (unknown origin) at 1000 nM relative to control

[36] = target: Tyrosine-protein kinase Lck (Homo sapiens) (UniProt P06239); details: dose 1000.0 nM
Description: Inhibition of LCK (unknown origin) at 1000 nM relative to control

[37] = target: Epidermal growth factor receptor (Homo sapiens) (UniProt P00533); details: dose 1000.0 nM
Description: Inhibition of EGFR (unknown origin) at 1000 nM relative to control

[38] = target: Tyrosine-protein kinase receptor UFO (Homo sapiens) (UniProt P30530); details: dose 1000.0 nM
Description: Inhibition of AXL (unknown origin) at 1000 nM relative to control

[39] = target: Mitogen-activated protein kinase kinase kinase 14 (Homo sapiens) (UniProt Q99558); details: dose 1000.0 nM
Description: Inhibition of NIK (unknown origin) at 1000 nM relative to control

[40] = target: Vascular endothelial growth factor receptor 2 (Homo sapiens) (UniProt P35968); details: dose 1000.0 nM
Description: Inhibition of VEGFR2(unknown origin) at 1000 nM relative to control

[41] = target: Mitogen-activated protein kinase kinase kinase 5 (Homo sapiens) (UniProt Q99683); details: dose 1000.0 nM
Description: Inhibition of ASK1 (unknown origin) at 1000 nM relative to control

[42] = target: Receptor-type tyrosine-protein kinase FLT3 (Homo sapiens) (UniProt P36888); details: dose 1000.0 nM
Description: Inhibition of FLT3 (unknown origin) at 1000 nM relative to control

[43] = target: Hepatocyte growth factor receptor (Homo sapiens) (UniProt P08581); details: dose 1000.0 nM
Description: Inhibition of MET (unknown origin) at 1000 nM relative to control

[44] = target: Glycogen synthase kinase-3 beta (Homo sapiens) (UniProt P49841); details: dose 1000.0 nM
Description: Inhibition of GSK3beta (unknown origin) at 1000 nM relative to control

[45] = target: Serine/threonine-protein kinase Nek2 (Homo sapiens) (UniProt P51955); details: dose 1000.0 nM
Description: Inhibition of NEK2 (unknown origin) at 1000 nM relative to control

[46] = target: Dual specificity protein kinase CLK1 (Homo sapiens) (UniProt P49759); details: dose 1000.0 nM
Description: Inhibition of CLK1 (unknown origin) at 1000 nM relative to control

[47] = target: Rho-associated protein kinase 1 (Homo sapiens) (UniProt Q13464); details: dose 1000.0 nM
Description: Inhibition of ROCK1 (unknown origin) at 1000 nM relative to control

[48] = target: Mitogen-activated protein kinase 14 (Homo sapiens) (UniProt Q16539); details: dose 1000.0 nM
Description: Inhibition of P38alpha (unknown origin) at 1000 nM relative to control

[49] = target: Tyrosine-protein kinase JAK3 (Homo sapiens) (UniProt P52333); details: dose 1000.0 nM
Description: Inhibition of JAK3 (unknown origin) at 1000 nM relative to control

[50] = target: Proto-oncogene tyrosine-protein kinase Src (Homo sapiens) (UniProt P12931); details: dose 1000.0 nM
Description: Inhibition of SRC (unknown origin) at 1000 nM relative to control

[51] = in vivo; details: Sprague-Dawley, rat, po, 5 mg/kg; remark: listed apart in the source
Description: Half life in Sprague-Dawley rat plasma at 5 mg/kg, po administered as single dose measured up to 8 hrs by LC/MS-MS analysis

[52] = test system: SNU-16; test: animal or person; type: functional; details: Mus musculus, SNU-16, po, 960 h, time 40 day, read-out: TGI; remark: listed apart in the source
Description: Antitumor activity against human SNU-16 cells xenografted in BALB/c mouse assessed as tumor growth inhibition at 50 mg/kg, po administered once daily for 40 days relative to control

[53] = target: Glycogen synthase kinase-3 alpha (Homo sapiens) (UniProt P49840); details: dose 1000.0 nM
Description: Inhibition of GSK3alpha (unknown origin) at 1000 nM relative to control

[54] = target: Serine/threonine-protein kinase PAK 3 (Homo sapiens) (UniProt O75914); details: dose 1000.0 nM
Description: Inhibition of PAK3 (unknown origin) at 1000 nM relative to control

[55] = test system: SNU-16; test: cells; type: functional, cell-based; details: Homo sapiens, SNU-16, 96 h
[56] = target: Mitogen-activated protein kinase 8 (Homo sapiens) (UniProt P45983); details: dose 1000.0 nM
Description: Inhibition of JNK1 (unknown origin) at 1000 nM relative to control

[57] = in vivo; details: Sprague-Dawley, rat, po, 5 mg/kg; remark: listed apart in the source
[58] = target: Serine/threonine-protein kinase Chk1 (Homo sapiens) (UniProt O14757); details: dose 1000.0 nM
Description: Inhibition of CHK1 (unknown origin) at 1000 nM relative to control

[59] = in vivo; details: Sprague-Dawley, rat, po, 5 mg/kg; remark: listed apart in the source
Description: MRT in Sprague-Dawley rat at 5 mg/kg, po administered as single dose measured up to 8 hrs by LC/MS-MS analysis

[60] = target: Serine/threonine-protein kinase TBK1 (Homo sapiens) (UniProt Q9UHD2); details: dose 1000.0 nM
Description: Inhibition of TBK1 (unknown origin) at 1000 nM relative to control

[61] = target: Tyrosine-protein kinase Mer (Homo sapiens) (UniProt Q12866); details: dose 1000.0 nM
Description: Inhibition of c-MER (unknown origin) at 1000 nM relative to control

[62] = target: Proto-oncogene tyrosine-protein kinase receptor Ret (Homo sapiens) (UniProt P07949); details: dose 1000.0 nM
Description: Inhibition of RET (unknown origin) at 1000 nM relative to control

[63] = organism: Homo sapiens; details: dose 1000.0 nM
Description: Inhibition of FYNA (unknown origin) at 1000 nM relative to control

[64] = target: Tyrosine-protein kinase BTK (Homo sapiens) (UniProt Q06187); details: dose 1000.0 nM
Description: Inhibition of BTK (unknown origin) at 1000 nM relative to control

[65] = organism: Homo sapiens; details: dose 1000.0 nM; remark: listed apart in the source
Description: Inhibition of PKA (unknown origin) at 1000 nM relative to control

[66] = test system: SK-HEP1; test: cells; type: functional, cell-based; details: Homo sapiens, SK-HEP1, 96 h
[67] = test system: Huh-7; test: cells; type: functional, cell-based; details: Homo sapiens, Huh-7, 96 h

Serine/threonine-protein kinase PAK 3 (Homo sapiens), sequence (O75914 whole entry, looked up): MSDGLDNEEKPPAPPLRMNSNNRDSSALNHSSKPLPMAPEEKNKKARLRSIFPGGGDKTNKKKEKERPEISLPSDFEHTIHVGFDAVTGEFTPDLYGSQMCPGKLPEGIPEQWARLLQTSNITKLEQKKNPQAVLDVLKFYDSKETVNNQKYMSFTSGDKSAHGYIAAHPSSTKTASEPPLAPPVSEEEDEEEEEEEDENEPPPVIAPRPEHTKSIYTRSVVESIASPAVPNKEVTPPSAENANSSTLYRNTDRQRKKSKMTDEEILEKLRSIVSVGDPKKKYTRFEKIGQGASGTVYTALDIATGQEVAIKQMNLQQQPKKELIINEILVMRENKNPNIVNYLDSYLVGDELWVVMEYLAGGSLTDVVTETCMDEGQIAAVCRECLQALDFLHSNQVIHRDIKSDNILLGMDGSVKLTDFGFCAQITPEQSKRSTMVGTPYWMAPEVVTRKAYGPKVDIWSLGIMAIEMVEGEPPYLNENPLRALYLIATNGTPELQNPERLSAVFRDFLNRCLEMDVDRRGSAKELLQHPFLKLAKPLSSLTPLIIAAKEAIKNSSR
Epidermal growth factor receptor (Homo sapiens), sequence (P00533 whole entry): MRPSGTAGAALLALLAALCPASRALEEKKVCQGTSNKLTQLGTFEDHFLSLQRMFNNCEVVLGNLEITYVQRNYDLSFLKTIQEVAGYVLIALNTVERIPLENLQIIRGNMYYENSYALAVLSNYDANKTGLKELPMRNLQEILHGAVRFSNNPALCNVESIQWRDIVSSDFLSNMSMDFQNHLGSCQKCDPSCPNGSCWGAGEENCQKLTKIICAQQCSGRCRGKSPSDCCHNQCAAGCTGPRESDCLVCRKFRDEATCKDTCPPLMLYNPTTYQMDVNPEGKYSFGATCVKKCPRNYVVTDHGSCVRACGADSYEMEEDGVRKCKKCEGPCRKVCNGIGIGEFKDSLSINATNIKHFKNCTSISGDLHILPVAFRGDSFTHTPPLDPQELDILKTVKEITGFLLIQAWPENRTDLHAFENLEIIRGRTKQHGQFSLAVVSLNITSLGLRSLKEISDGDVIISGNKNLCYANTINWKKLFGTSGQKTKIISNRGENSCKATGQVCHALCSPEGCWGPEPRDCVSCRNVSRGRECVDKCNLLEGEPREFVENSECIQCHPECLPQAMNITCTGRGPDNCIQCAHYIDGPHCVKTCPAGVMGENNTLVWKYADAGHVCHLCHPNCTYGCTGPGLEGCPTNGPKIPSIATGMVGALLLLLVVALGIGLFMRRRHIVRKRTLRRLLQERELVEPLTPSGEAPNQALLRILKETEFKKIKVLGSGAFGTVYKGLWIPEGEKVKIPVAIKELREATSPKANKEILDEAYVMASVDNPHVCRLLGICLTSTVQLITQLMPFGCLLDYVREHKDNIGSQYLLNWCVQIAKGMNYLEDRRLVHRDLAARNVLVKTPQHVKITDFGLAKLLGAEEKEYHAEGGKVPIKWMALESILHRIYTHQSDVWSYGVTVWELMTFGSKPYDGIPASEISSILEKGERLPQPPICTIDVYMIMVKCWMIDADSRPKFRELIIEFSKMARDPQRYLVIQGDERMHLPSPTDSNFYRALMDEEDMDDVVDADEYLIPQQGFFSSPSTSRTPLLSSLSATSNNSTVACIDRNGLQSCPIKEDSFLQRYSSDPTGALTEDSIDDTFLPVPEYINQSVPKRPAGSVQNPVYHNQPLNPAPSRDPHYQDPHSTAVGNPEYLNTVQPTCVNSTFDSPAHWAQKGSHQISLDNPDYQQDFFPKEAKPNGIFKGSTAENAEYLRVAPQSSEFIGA
Focal adhesion kinase 1 (Homo sapiens), sequence (Q05397 2-1052 limits assumed): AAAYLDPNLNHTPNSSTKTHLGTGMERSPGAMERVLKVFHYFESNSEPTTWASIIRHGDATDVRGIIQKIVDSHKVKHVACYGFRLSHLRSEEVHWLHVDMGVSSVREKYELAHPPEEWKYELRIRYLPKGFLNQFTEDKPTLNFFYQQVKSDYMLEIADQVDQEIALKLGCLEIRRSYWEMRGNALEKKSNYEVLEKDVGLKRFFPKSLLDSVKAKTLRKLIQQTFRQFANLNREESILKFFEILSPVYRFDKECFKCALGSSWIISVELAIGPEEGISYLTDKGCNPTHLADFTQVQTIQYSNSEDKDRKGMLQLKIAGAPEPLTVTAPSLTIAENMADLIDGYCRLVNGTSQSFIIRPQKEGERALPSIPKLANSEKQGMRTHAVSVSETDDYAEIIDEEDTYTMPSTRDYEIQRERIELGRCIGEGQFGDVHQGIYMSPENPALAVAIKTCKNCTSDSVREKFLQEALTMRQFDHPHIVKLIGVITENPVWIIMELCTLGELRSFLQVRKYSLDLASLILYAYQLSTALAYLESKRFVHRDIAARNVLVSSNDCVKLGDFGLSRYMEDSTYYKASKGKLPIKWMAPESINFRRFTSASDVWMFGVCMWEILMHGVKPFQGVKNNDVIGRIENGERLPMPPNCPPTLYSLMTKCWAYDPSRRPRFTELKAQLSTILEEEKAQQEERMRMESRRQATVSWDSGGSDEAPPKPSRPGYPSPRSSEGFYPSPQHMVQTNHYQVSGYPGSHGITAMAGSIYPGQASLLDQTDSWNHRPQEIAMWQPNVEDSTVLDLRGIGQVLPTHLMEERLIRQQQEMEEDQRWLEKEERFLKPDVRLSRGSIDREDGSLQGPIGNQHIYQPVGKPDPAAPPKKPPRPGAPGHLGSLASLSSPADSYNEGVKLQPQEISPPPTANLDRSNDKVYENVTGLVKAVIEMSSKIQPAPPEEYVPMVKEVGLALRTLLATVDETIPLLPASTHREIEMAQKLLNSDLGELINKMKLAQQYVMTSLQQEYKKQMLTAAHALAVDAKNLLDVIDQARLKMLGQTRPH
Mitogen-activated protein kinase 1 (Homo sapiens), sequence (P28482 whole entry): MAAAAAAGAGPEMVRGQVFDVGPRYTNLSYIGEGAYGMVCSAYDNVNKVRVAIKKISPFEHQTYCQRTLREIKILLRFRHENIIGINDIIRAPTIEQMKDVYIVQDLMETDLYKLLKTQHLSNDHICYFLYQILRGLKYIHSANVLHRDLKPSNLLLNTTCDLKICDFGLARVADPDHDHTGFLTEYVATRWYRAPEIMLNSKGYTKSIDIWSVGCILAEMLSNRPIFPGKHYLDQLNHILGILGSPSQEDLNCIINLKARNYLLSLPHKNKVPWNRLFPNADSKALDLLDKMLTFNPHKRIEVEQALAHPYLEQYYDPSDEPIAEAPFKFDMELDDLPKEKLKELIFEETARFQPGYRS
Serine/threonine-protein kinase pim-1 (Homo sapiens), sequence (P11309 whole entry, looked up): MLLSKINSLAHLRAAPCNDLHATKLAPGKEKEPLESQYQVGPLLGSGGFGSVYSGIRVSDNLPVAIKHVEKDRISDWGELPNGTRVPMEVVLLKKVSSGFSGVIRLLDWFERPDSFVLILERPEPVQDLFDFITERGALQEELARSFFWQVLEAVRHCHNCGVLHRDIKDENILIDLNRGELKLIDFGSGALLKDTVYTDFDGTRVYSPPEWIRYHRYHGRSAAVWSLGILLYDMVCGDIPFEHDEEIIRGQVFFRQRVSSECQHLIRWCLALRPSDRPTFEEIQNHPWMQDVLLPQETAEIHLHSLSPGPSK
Maternal embryonic leucine zipper kinase (Homo sapiens), sequence (Q14680 whole entry, looked up): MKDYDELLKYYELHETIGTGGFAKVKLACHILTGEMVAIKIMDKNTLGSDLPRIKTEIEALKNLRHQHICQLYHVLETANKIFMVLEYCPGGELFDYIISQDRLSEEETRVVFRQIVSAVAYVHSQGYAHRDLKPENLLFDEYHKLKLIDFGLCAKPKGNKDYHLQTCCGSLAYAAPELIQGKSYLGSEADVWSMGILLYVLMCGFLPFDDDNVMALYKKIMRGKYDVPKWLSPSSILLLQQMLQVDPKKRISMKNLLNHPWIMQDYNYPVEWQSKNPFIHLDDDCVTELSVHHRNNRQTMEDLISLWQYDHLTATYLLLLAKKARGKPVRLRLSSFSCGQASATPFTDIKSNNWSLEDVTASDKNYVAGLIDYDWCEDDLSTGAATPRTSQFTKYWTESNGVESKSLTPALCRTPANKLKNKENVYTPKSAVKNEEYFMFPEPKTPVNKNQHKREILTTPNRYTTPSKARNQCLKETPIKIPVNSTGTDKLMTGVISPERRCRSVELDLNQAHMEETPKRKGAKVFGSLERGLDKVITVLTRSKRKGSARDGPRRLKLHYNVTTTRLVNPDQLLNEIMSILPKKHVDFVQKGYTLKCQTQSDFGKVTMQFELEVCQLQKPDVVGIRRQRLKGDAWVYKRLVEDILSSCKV
Tyrosine-protein kinase receptor UFO (Homo sapiens), sequence (P30530 whole entry): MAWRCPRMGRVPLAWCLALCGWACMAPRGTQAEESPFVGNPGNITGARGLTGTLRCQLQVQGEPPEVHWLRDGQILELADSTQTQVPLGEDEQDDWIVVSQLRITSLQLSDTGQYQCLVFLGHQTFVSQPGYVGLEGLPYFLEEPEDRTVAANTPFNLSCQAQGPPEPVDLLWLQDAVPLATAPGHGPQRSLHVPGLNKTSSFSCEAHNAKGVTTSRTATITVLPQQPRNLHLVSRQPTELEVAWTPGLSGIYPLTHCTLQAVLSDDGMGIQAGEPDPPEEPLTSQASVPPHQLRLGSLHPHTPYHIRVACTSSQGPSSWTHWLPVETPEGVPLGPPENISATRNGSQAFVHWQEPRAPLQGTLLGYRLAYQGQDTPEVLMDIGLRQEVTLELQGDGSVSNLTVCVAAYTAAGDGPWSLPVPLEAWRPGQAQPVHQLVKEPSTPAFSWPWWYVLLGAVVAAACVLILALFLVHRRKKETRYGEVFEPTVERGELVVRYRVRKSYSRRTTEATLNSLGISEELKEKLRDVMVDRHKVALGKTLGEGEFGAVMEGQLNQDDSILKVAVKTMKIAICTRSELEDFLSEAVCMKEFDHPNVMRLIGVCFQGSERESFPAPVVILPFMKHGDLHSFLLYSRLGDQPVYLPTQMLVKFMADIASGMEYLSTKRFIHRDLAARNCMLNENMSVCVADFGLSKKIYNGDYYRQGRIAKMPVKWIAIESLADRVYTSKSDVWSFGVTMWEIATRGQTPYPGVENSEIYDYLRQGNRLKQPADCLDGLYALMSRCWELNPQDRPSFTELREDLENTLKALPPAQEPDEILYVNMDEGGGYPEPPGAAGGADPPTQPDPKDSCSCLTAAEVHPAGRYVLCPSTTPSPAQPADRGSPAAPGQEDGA

Compound COc1cc(OC)cc(-c2nn(CCCCCN3CCN(C(=O)/C=C/C(F)(F)F)CC3)c3ncnc(N)c23)c1 has an inhibition [1] of 0%, an inhibition [2] of 1% and an inhibition [3] of 0%. For the same compound, the inhibition [4] was 0%, the inhibition [5] was 17% and the inhibition [6] was 3%. It also gave an IC50 [7] of over 10000 nM, an AUC at 8 h [8] of 0.309 ng·h/mL and an inhibition [9] of 8%. It also gave an inhibition [10] of 0%, an inhibition in vivo at 50 mg/kg [11] of 69.5% and an inhibition in vivo at 100 mg/kg [12] of 89.4%. It also gave an inhibition [13] of 35%, an inhibition [14] of 21% and an inhibition [15] of 1%. It also gave an inhibition [16] of 42%, an IC50 [17] of 3210 nM and an inhibition [18] of 4%. The IC50 [19] was 16 nM, the inhibition [20] was 6% and the inhibition [21] was 0%. For the same compound, the MRT at 8 h [22] was 60.5 min, the Tmax at 8 h [23] was 4.98 min and the C0 at 8 h [24] was 0.519 ng/mL. It also gave an inhibition [25] of 4%, an inhibition [26] of 0% and a CL/F at 8 h [27] of 280000 mL/min. It also gave an inhibition [28] of 27%, an inhibition [29] of 14% and an inhibition in vivo at 100 mg/kg [30] of 88.6%. It also gave an inhibition [31] of 3%, an inhibition [32] of 0% and an inhibition [33] of 2%. It also gave a bioavailability at 8 h [34] of 24.9%, an inhibition [35] of 0% and an inhibition [36] of 23%. The inhibition [37] was 2%, the inhibition [38] was 0% and the inhibition [39] was 0%. For the same compound, the inhibition [40] was 7%, the inhibition [41] was 0% and the inhibition [42] was 1%. For the same compound, the inhibition [43] was 1%, the inhibition [44] was 0% and the inhibition [45] was 0%. The inhibition [46] was 0%, the inhibition [47] was 12% and the inhibition [48] was 3%. The inhibition [49] was 11%, the inhibition [50] was 83% and the half-life at 8 h [51] was 16.8 min. For the same compound, the inhibition in vivo at 50 mg/kg [52] was 67.9%, the inhibition [53] was 0% and the inhibition [54] was 9%. It also gave an IC50 [55] of 6 nM, an inhibition [56] of 2% and a Tmax at 8 h [57] of 8.34 min. The inhibition [58] was 2%, the MRT at 8 h [59] was 19.1 min and the inhibition [60] was 1%. It also gave an inhibition [61] of 9%, an inhibition [62] of 24% and an inhibition [63] of 0%. For the same compound, the inhibition [64] was 0% and the inhibition [65] was 0%.

With COc1cc(CCc2cc(NC(=O)c3ccc(N4C[C@@H](C)N[C@@H](C)C4)cc3)n[nH]2)cc(OC)c1 [FEXAGRATINIB] the IC50 [7] was over 10000 nM, the IC50 [66] was 2780 nM and the IC50 [19] was 24 nM. The IC50 [67] was over 10000 nM and the IC50 [55] was 6 nM.
